Columns and labels:
[1] = Dissociation constant, pKa of the compound; assay type: physicochemical
[2] = Partition coefficient, log D of the compound at pH 7.4; assay type: physicochemical; details: octanol/water
[3] = system: HCT-116; test: Cytotoxicity against human HCT116 cells at 10 uM; assay type: cell-based; details: hct-116, 10 µM
[4] = target: Kelch-like ECH-associated protein 1 (Homo sapiens) (UniProt Q14145); test: Inhibition of Keap1-Nrf2 interaction in human HepG2-ARE-C8 cells assessed as activation of Nrf2-ARE luciferase activity at 40 uM after 12 hrs relative to control; assay type: cell-based
[5] = target: Kelch-like ECH-associated protein 1 (Homo sapiens) (UniProt Q14145); test: Inhibition of Keap1-Nrf2 interaction in human HepG2-ARE-C8 cells assessed as activation of Nrf2-ARE luciferase activity at 80 uM after 12 hrs relative to control; assay type: cell-based
[6] = target: Kelch-like ECH-associated protein 1 (Homo sapiens) (UniProt Q14145); test: Inhibition of Keap1-Nrf2 interaction in human HepG2-ARE-C8 cells assessed as activation of Nrf2-ARE luciferase activity at 20 uM after 12 hrs relative to control; assay type: cell-based

Sequence of Kelch-like ECH-associated protein 1 (Homo sapiens) (Q14145 whole entry): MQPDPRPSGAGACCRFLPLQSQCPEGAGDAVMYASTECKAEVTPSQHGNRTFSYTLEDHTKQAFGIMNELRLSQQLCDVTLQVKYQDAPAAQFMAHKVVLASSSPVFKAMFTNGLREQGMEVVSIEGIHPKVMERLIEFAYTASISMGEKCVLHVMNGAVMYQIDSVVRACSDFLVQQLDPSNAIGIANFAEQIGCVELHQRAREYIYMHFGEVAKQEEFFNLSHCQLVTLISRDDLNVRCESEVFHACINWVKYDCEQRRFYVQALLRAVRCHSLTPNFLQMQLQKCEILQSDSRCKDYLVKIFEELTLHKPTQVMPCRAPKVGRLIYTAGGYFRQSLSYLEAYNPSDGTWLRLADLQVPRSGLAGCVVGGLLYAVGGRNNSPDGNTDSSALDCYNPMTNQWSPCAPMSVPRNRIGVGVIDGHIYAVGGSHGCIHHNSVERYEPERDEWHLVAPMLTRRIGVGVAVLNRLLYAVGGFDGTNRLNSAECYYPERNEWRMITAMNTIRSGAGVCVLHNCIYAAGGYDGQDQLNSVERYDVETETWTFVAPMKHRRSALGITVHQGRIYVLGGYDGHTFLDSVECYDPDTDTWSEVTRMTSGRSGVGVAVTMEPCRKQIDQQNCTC

| Compound | pKa [1] | logD [2] | Activity [3] | fold change (FC) [4] | fold change (FC) [5] | fold change (FC) [6] |
| --- | --- | --- | --- | --- | --- | --- |
| COc1ccc(S(=O)(=O)N(CC(=O)O)c2ccc(N(CC(=O)O)S(=O)(=O)c3ccc(OC)cc3)c3ccccc23)cc1 | 4.62 | 1.71 | Non-toxic |  |  |  |
| CC(C)(C)c1cc(O)ccc1O |  |  |  | 3.81 | 6.21 | 2.22 |
| C[S+]([O-])CCCCN=C=S (configuration not stated) |  |  |  |  |  | 18.1 |

From ChEMBL document CHEMBL3233002, “Discovery of potent Keap1-Nrf2 protein-protein interaction inhibitor based on molecular binding determinants analysis” (J Med Chem, 2014)
